# Results published in patent US20240041830A1, “CIRCULATING BIOMARKERS OF RESPONSE TO PD-1/PD-L1 BLOCKADE AND GSK-3 INHIBITION” (Brown University, priority 2022, published 2024).
# Columns and labels:
# SW480 = experiment: multicolor co-culture of SW480 and TALL-104 T cells; type: cell-based, human
# Text: Multicolor immune cell co-culture experiments.
# Elraglusib sensitizes tumor cells to immune-mediated cytotoxicity. […] FIG. 8A. TALL-104 cells are a human leukemic T cell line.
# FIG. 1A. […] FIG. 1B. […] FIG. 1C. […] FIG. 1D. […] FIG. 1E. […] FIG. 1F.
# [1] = system: panel of human colorectal cell lines; experiment: Luminex 200 analysis of tumor cell culture supernatants (Example 1); type: cell-based
# Procedure: Human cytokine profiling. Human cell line culture supernatants were analyzed using an R&D systems Human Premixed Multi-Analyte Kit (R&D Systems, Inc., Minneapolis, MN, USA) and a Luminex 200 (RRID: SCR_018025) Instrument (LX200-XPON-RUO, Luminex Corporation, Austin, TX, USA) according to the manufacturer's instructions. Sample levels of TNF-α, 4-1BB/TNFRSF9/CD137, IL-8/CXCL8, Ferritin, IFN-β, IL-10, CCL2/JE/MCP-1, VEGF, CXCL13/BLC/BCA-1, IFN-γ, CCL20/MIP-3 α, CCL3/MIP-1 α, CCL22/MDC, CCL4/MIP-1 β, Fas Ligand/TNFSF6, IL-17/1L-17A, IL-2, BAFF/BLyS/TNFSF13B, GM-CSF, CXCLS/ENA-78, TRANCE/TNFSF11/RANK L, CXCL9/MIG, G-CSF, IFN-γ R1/CD119, VEGFR3/Flt-4, C-Reactive Protein/CRP, CXCL11/I-TAC, IL-21, CXCL14/BRAK, IL-6, Fas/TNFRSF6/CD95, TRAIL R3/TNFRSF10C, IL-4, CCL5/RANTES, PD-L1/137-H1, CCL7/MCP-3/MARC, Chitinase 3-like 1, CXCL10/IP-10/CRG-2, IL-1 μ/IL-1F2, IL-7, Prolactin, CCL8/MCP-2, TRAIL R2/TNFRSF10B, M-CSF, IL-15, Granzyme B, IFN-α, TREM-1, IL-12/1L-23 p40, TRAIL/TNFSF10, CCL11/Eotaxin, and 1L-18/1L-1F4. Quantitative analysis with 6 standards and a minimum of 50 counts per bead region was used with the Luminex to generate analyte values reported as picograms/milliliter (pg/mL). Sample concentrations less than the lower limit of detection for each particular analyte were recoded as the lower limit value divided by 10. Sample concentrations above the upper limit of detection for a particular analyte were recoded as the upper limit of detection.
# A panel of human colorectal cell lines was chosen to provide a varied mutational background (TP53, KRAS, BRAF, TRK, APC, PIK3CA). Cells were treated with elraglusib at doses up to 50 μM for seventy-two hours to determine IC10, IC30, IC50, and IC70. Cytokine, chemokine, and growth factor levels were analyzed in the tumor cell culture supernatants after treatment at IC10, IC30, IC50, and IC70 for forty-eight hours using a Luminex 200 multiplexing instrument. Co-culture experiments were conducted with GFP+ SW480 colorectal cancer cells and either NK-92 natural killer cells or TALL-104 T cells at various effector/target ratios in a 48-well plate, in the presence or absence of elraglusib.
smiles,measurement,setting,value
Cn1cc(C2=C(c3coc4ccc(F)cc34)C(=O)NC2=O)c2cc3c(cc21)OCO3 [elraglusib],dead cells out of total cells,"SW480; co-culture with TALL-104, 5 μM, 24 hours, E:T 1:1, normalized, without drug approximately 45%",60%
same,dead cells out of total cells,"SW480; co-culture with TALL-104, 10 μM, 24 hours, E:T 1:1, normalized, without drug approximately 45%",65%
same,dead cells out of total cells,"SW480; tumor cells pre-treated 5 μM for twenty-four hours, then co-cultured with TALL-104",65%
same,macrophage colony-stimulating factor (M-CSF),[1],decrease
same,VEGF in supernatant,"[1]; IC10, IC30, IC50, IC70 for forty-eight hours",decreased
same,Overall cytokine levels,[1]; in response to increasing doses,decreasing trend
same,CXCL14 (BRAK) in supernatant,[1]; with increasing doses,increase
